Experiments:
Assay type in all cases: cell-based
[1] = test system: human Burkitt's lymphoma cell line Namalwa; test: Inhibition of cell proliferation (GI50) in Namalwa cells; details: Burkitts lymphoma cell, 48 h incubation
Method: (§1) Human breast cancer cell lines T-47D, MX1 and MDAMB435, human colon carcinoma cell line HCT116, human leukemia cell line K562, human lymphoma cell line Raji, human B cell lymphoblastoid cell line Ramos, and human Burkitt's lymphoma cell line Namalwa were grown and harvested as in Example 14. An aliquot of […] of cells (4.4×10^4 cells/mL) was added to a well of a 96-well microtiter plate containing 5 μL of a 10% DMSO in RPMI-1640 media solution containing 10 nM to 100 μM of 6-(3,4-dimethoxyphenyl)-3-(2-methoxyphenyl)-[1,2,4]triazolo[3,4-b][1,3,4]thiadiazole (1 nM to 10 μM final). An aliquot of 45 μL of cells was added to a well of a 96-well microtiter plate containing 5 μL of a 10% DMSO in RPMI-1640 media solution without compound as the control sample for maximal cell proliferation (LMax). The samples were mixed by agitation and then incubated at 37° C. for 48 h in a 5% CO2-95% humidity incubator. After incubation, the samples were removed from the incubator and 25 μL of CellTiter-Glo™ reagent (Promega) was added. The samples were mixed by agitation and incubated at room temperature for 10-15 min. Plates were then read using a luminescent plate reader (Model SPECTRAfluor Plus, Tecan) to give Ltest values.
(§2) The samples were mixed by agitation and then incubated at 37° C. for 0.5 h in a 5% CO2-95% humidity incubator. After incubation, the samples were removed from the incubator and 25 μL of CellTiter-Glo™ reagent (Promega) was added. The samples were mixed by agitation and incubated at […] 10-15 min at room temperature in a 5% CO2-95% humidity incubator. Fluorescence was read as above, (LStart) defining luminescence for initial cell number used as baseline in GI50 determinations.
(§3) GI50 (dose for 50% inhibition of cell proliferation) is the concentration where [(LTest−LStart)/(LMax−LStart)]=0.5.

[2] = test system: human lymphoma cell line Raji; test: Inhibition of cell proliferation (GI50) in Raji cells; details: 48 h incubation
Method: as §1, §2, §3

[3] = test system: human colon carcinoma cell line HCT116; test: Caspase cascade activation in HCT116 cells; details: HCT-116, 48 h incubation, read-out: caspase potency EC50 HCT116
Method: (§4) Human breast cancer cell lines T-47D, human hepatocellular carcinoma cell line SNU398, human colon carcinoma cell line HCT116, human cancer cell line H11299, human Burkitt's lymphoma cell line Namalwa, human lymphoma cell line Raji, and human B cell lymphoblastoid cell line Ramos were grown according to media component mixtures designated by American Type Culture Collection+10% FCS (Invitrogen Corporation), in a 5% CO2-95% humidity incubator at 37° C. T-47D and H1299 cells were maintained at a cell density between 50 and 80% confluency at a cell density of 0.1 to 0.6×10^6 cells/mL. Cells were harvested at 600×g and resuspended at 0.65×10^6 cells/mL into appropriate media+10% FCS. An aliquot of 22.5 μL of cells was added to a well of a 384-well microtiter plate containing 2.5 μL of a 10% DMSO in RPMI-1640 media solution containing 0.16 to 100 μM of 6-(3,4-dimethoxyphenyl)-3-(2-methoxyphenyl)-[1,2,4]triazolo[3,4-b][1,3,4]thiadiazole or other test compound (0.016 to 10 μM final). An aliquot of 22.5 μL of cells was added to a well of a 384-well microtiter plate containing 2.5 μL of a 10% DMSO in RPMI-1640 media solution without test compound as the control sample. The samples were mixed by agitation and then incubated at 37° C. for 48 h in a 5% CO2-95% humidity incubator. After incubation, the samples were removed from the incubator and 25 μL of a solution containing 14 μM of N-(Ac-DEVD)-N′-ethoxycarbonyl-R110 (SEQ ID No.:1) fluorogenic substrate (Cytovia, Inc.; WO99/18856), 20% sucrose (Sigma), 20 mM DTT (Sigma), 200 mM NaCl (Sigma), 40 mM Na PIPES buffer pH 7.2 (Sigma), and 500 μg/mL lysolecithin (Calbiochem) was added. The samples were mixed by agitation and incubated at room temperature. Using a fluorescent plate reader (Model SPECTRAfluor Plus, Tecan), an initial reading (T=0) was made approximately 1-2 min after addition of the substrate solution, employing excitation at 485 nm and emission at 530 nm, to determine the background fluorescence of the control sample. After the 3 h incubation, the samples were read for fluorescence as above (T=3 h).
(§5) The Relative Fluorescence Unit values (RFU) were used to calculate the sample readings as follows: RFU(T=3h)−Control RFU(T=0)=Net RFU(T=3h)
(§6) The activity of caspase cascade activation was determined by the ratio of the net RFU value for 6-(3,4-dimethoxyphenyl)-3-(2-methoxyphenyl)-[1,2,4]triazolo[3,4-b][1,3,4]thiadiazole (Example I) or other test compound to that of control samples. The EC50 (nM) was determined by a sigmoidal dose-response calculation (Prism 3.0, GraphPad Software Inc.).

[4] = test system: human colon carcinoma cell line HCT116; test: Inhibition of cell proliferation (GI50) in HCT116 cells; details: HCT 116 cells, 48 h incubation
Method: as §1, §2, §3

[5] = test system: Human breast cancer cell lines T-47D; test: Caspase cascade activation (Ac-DEVD-R110 fluorogenic substrate) in T-47D cells; details: T47D cells, 48 h incubation, read-out: caspase potency EC50 T47D
Method: as §4, §5, §6

[6] = test system: human leukemia cell line K562; test: Inhibition of cell proliferation (GI50) in K562 cells; details: 48 h incubation
Method: as §1, §2, §3

[7] = test system: human hepatocellular carcinoma cell line SNU398; test: Caspase cascade activation in SNU398 cells; details: SNU-398, 48 h incubation, read-out: caspase potency EC50 SNU398
Method: as §4, §5, §6

[8] = test system: human Burkitt's lymphoma cell line Namalwa; test: Caspase cascade activation in Namalwa cells; details: Burkitts lymphoma cell, 48 h incubation, read-out: caspase potency EC50 Namalwa
Method: as §4, §5, §6

[9] = test system: human lymphoma cell line Raji; test: Caspase cascade activation in Raji cells; details: RAJ1 cells, 48 h incubation, read-out: caspase potency EC50 RAJ1
Method: as §4, §5, §6

[10] = test system: human B cell lymphoblastoid cell line Ramos; test: Caspase cascade activation in Ramos cells; details: 48 h incubation, read-out: caspase potency EC50 RAMOS
Method: as §4, §5, §6

[11] = test system: human B cell lymphoblastoid cell line Ramos; test: Inhibition of cell proliferation (GI50) in Ramos cells; details: 48 h incubation
Method: as §1, §2, §3

| SMILES | GI50 [1] [nM] | GI50 [2] [nM] | EC50 [3] [nM] | GI50 [4] [nM] | EC50 [5] [nM] | GI50 [6] [nM] | EC50 [7] [nM] | EC50 [8] [nM] | EC50 [9] [nM] | EC50 [10] [nM] | GI50 [11] [nM] |
| --- | --- | --- | --- | --- | --- | --- | --- | --- | --- | --- | --- |
| COc1ccccc1-c1nnc2sc(-c3cc4ccccc4o3)nn12 [Entry A1, 6-(Benzofuran-2-yl)-3-(2-methoxyphenyl)-[1,2,4]triazolo[3,4-b][1,3,4]thiadiazole] | 126 | 966 | 321 | 2500 | 662 | 124 | 160 | 92 | 198 | 115 | 58 |
| COc1cc(-c2nnc3sc(-c4ccc(C)cc4)nn23)cc(OC)c1OC [Entry B1, 6-p-Tolyl-3-(3,4,5-trimethoxyphenyl)-[1,2,4]triazolo[3,4-b][1,3,4]thiadiazole] | 253 | 549 | 647 | 1000 | 1540 | 303 | 494 | 356 | 678 | 379 | 119 |
| COc1cccc(-c2nnc3sc(-c4ccc(N(C)C)cc4)nn23)c1 [Entry D1, 6-(4-Dimethylaminophenyl)-3-(3-methoxyphenyl)-1-[1,2,4]triazolo[3,4-b][1,3,4]thiadiazole] | 1130 | 2600 | 2270 | 6830 | 1390 | 1020 | 1650 | 1290 | 1410 | 1250 | 647 |
| CN(C)c1ccc(-c2nn3c(-c4ccccc4Cl)nnc3s2)cc1 [Entry E1, 3-(2-Chlorophenyl)-6-(4-dimethylaminophenyl)-[1,2,4]triazolo[3,4-b][1,3,4]thiadiazole] | 167 | 519 | 1200 | 2040 | 1090 | 332 | 556 | 327 | 573 | 325 | 146 |
| CCN(CC)c1ccc(-c2nn3c(-c4ccccc4C)nnc3s2)cc1 [Entry F1, 6-(4-Diethylaminophenyl)-3-o-tolyl-[1,2,4]triazolo[3,4-b][1,3,4]thiadiazole] | 372 | 801 | 1720 | 694 | 666 | 303 | 751 | 734 | 1020 | 712 | 113 |
| CCN(CC)c1ccc(-c2nn3c(-c4ccccc4Cl)nnc3s2)cc1 [Entry G1, 3-(2-Chlorophenyl)-6-(4-diethylaminophenyl)-[1,2,4]triazolo[3,4-b][1,3,4]thiadiazole] | 149 | 405 | 1380 | 492 | 584 | 155 | 455 | 593 | 627 | 575 | 41 |
| Cc1ccccc1-c1nnc2sc(-c3ccc(N(C)C)cc3)nn12 [Entry I1, 6-(4-Dimethylaminophenyl)-3-o-tolyl-[1,2,4]triazolo[3,4-b][1,3,4]thiadiazole] | 142 | 253 | 1330 | 1190 | 864 | 350 | 596 | 510 | 634 | 558 | 93 |
| COc1ccc(-c2nn3c(-c4cc(OC)c(OC)c(OC)c4)nnc3s2)cc1 [Entry S, 6-(4-Methoxyphenyl)-3-(3,4,5-trimethoxyphenyl)-[1,2,4]triazolo[3,4-b][1,3,4]thiadiazole] | > 10000 | > 10000 | > 10000 | > 10000 | 2420 | 1460 | > 10000 | > 10000 | > 10000 | 2440 | 4990 |
